Measured values reported in the NIST ThermoML archive (doi:10.1016/j.tca.2015.02.020).

Experiment: molar heat capacity at constant pressure; xn = mol fraction of the nth substance listed
Conditions: 101 kPa, Small sample (50 mg) DSC

NCCCO [3-amino-1-propanol] + O
Conditions | molar heat capacity at constant pressure [J/K/mol]
125.42 K, Glass, x1 = 0.19 | 28.29
125.42 K, Glass, x1 = 0.26 | 32.2
126.01 K, Glass, x1 = 0.68 | 47.75
126.94 K, Glass, x1 = 0.19 | 29.15
127.1 K, Glass, x1 = 0.26 | 32.2
127.56 K, Glass, x1 = 0.16 | 28.24
127.59 K, Glass, x1 = 0.16 | 29.05
128.06 K, Glass, x1 = 0.68 | 51.16
129.29 K, Glass, x1 = 0.19 | 30.02
130.07 K, Glass, x1 = 0.26 | 33.19
130.83 K, Glass, x1 = 0.16 | 29.05
130.83 K, Glass, x1 = 0.68 | 52.29
131.76 K, Glass, x1 = 0.19 | 30.6
131.92 K, Glass, x1 = 0.26 | 33.19
132.24 K, Glass, x1 = 0.16 | 30.41
132.71 K, Glass, x1 = 0.68 | 52.86
133.95 K, Glass, x1 = 0.19 | 31.46
134.1 K, Glass, x1 = 0.16 | 30.14
134.11 K, Glass, x1 = 0.68 | 54
134.74 K, Glass, x1 = 0.26 | 34.17
135.04 K, Glass, x1 = 0.19 | 31.46
135.2 K, Glass, x1 = 0.26 | 33.85
136.92 K, Glass, x1 = 0.16 | 32.04
137.39 K, Glass, x1 = 0.68 | 54.57
138.63 K, Glass, x1 = 0.19 | 33.19
139.41 K, Glass, x1 = 0.26 | 35.49
140.66 K, Glass, x1 = 0.16 | 31.77
140.66 K, Glass, x1 = 0.68 | 56.27
141.59 K, Glass, x1 = 0.16 | 33.94
141.6 K, Glass, x1 = 0.19 | 33.48
141.75 K, Glass, x1 = 0.26 | 35.82
142.07 K, Glass, x1 = 0.68 | 56.27
143.47 K, Glass, x1 = 0.19 | 34.92
143.95 K, Glass, x1 = 0.16 | 32.58
143.95 K, Glass, x1 = 0.68 | 57.98
144.1 K, Glass, x1 = 0.26 | 36.47
144.88 K, Glass, x1 = 0.19 | 34.64
145.04 K, Glass, x1 = 0.26 | 36.8
146.28 K, Glass, x1 = 0.16 | 36.65
146.75 K, Glass, x1 = 0.68 | 56.84
148.16 K, Glass, x1 = 0.19 | 37.23
148.79 K, Glass, x1 = 0.26 | 39.1
150.53 K, Glass, x1 = 0.16 | 34.75
150.53 K, Glass, x1 = 0.68 | 60.25
150.98 K, Glass, x1 = 0.16 | 40.73
151.45 K, Glass, x1 = 0.68 | 57.98
151.46 K, Glass, x1 = 0.19 | 36.94
151.62 K, Glass, x1 = 0.26 | 39.1
152.86 K, Glass, x1 = 0.19 | 40.99
153.81 K, Glass, x1 = 0.16 | 36.65
153.82 K, Glass, x1 = 0.68 | 61.96
154.75 K, Glass, x1 = 0.19 | 38.39
154.91 K, Glass, x1 = 0.26 | 40.42
156.15 K, Glass, x1 = 0.68 | 60.25
160.4 K, Glass, x1 = 0.68 | 65.37
161.49 K, Glass, x1 = 0.26 | 45.02
163.69 K, Glass, x1 = 0.68 | 67.64
165.08 K, Liquid, x1 = 0.16 | 65.7
166.96 K, Liquid, x1 = 0.19 | 68.12
169.79 K, Liquid, x1 = 0.16 | 66.79
170.28 K, Liquid, x1 = 0.16 | 66.25
171.23 K, Liquid, x1 = 0.19 | 71.87
171.67 K, Liquid, x1 = 0.19 | 69.27
173.58 K, Liquid, x1 = 0.16 | 66.79
174.5 K, Liquid, x1 = 0.16 | 67.06
174.5 K, Liquid, x1 = 0.26 | 77.55
174.53 K, Liquid, x1 = 0.19 | 71.87
174.68 K, Liquid, x1 = 0.26 | 82.48
176.39 K, Liquid, x1 = 0.19 | 69.56
179.21 K, Liquid, x1 = 0.16 | 67.6
179.21 K, Liquid, x1 = 0.26 | 77.88
179.69 K, Liquid, x1 = 0.68 | 127.32
180.18 K, Liquid, x1 = 0.16 | 67.88
180.19 K, Liquid, x1 = 0.68 | 138.69
181.09 K, Liquid, x1 = 0.19 | 69.85
181.12 K, Liquid, x1 = 0.19 | 72.74
181.28 K, Liquid, x1 = 0.26 | 82.81
183.49 K, Liquid, x1 = 0.16 | 68.69
183.49 K, Liquid, x1 = 0.68 | 138.69
183.93 K, Liquid, x1 = 0.16 | 68.42
183.93 K, Liquid, x1 = 0.26 | 78.21
184.41 K, Liquid, x1 = 0.68 | 127.32
184.43 K, Liquid, x1 = 0.19 | 73.31
184.59 K, Liquid, x1 = 0.26 | 83.14
185.82 K, Liquid, x1 = 0.19 | 70.43
188.65 K, Liquid, x1 = 0.16 | 69.5
188.65 K, Liquid, x1 = 0.26 | 78.86
189.12 K, Liquid, x1 = 0.68 | 127.32
190.09 K, Liquid, x1 = 0.16 | 70.05
190.1 K, Liquid, x1 = 0.68 | 139.26
190.54 K, Liquid, x1 = 0.19 | 71.29
191.04 K, Liquid, x1 = 0.19 | 75.04
191.2 K, Liquid, x1 = 0.26 | 84.12
193.38 K, Liquid, x1 = 0.16 | 70.32
193.38 K, Liquid, x1 = 0.26 | 79.52
193.4 K, Liquid, x1 = 0.16 | 70.05
193.41 K, Liquid, x1 = 0.68 | 139.83
193.85 K, Liquid, x1 = 0.68 | 127.32
194.35 K, Liquid, x1 = 0.19 | 75.62
194.51 K, Liquid, x1 = 0.26 | 84.78
195.27 K, Liquid, x1 = 0.19 | 71.87
198.1 K, Liquid, x1 = 0.16 | 71.41
198.1 K, Liquid, x1 = 0.26 | 79.85
198.58 K, Liquid, x1 = 0.68 | 127.89
199.99 K, Liquid, x1 = 0.19 | 73.02
200.03 K, Liquid, x1 = 0.68 | 140.96
200.98 K, Liquid, x1 = 0.19 | 77.06
201.13 K, Liquid, x1 = 0.26 | 86.42
202.83 K, Liquid, x1 = 0.16 | 72.49
202.84 K, Liquid, x1 = 0.26 | 80.84
203.31 K, Liquid, x1 = 0.68 | 129.03
203.35 K, Liquid, x1 = 0.68 | 141.53
204.28 K, Liquid, x1 = 0.19 | 77.64
204.44 K, Liquid, x1 = 0.26 | 86.75
204.72 K, Liquid, x1 = 0.19 | 73.89
